{"source": "patent US20190192686A1", "about": "“TARGETED NANODROPLET EMULSIONS FOR TREATING CANCER” (The University of Louisville Research Foundation,, priority 2016, published 2019)", "origin": "cited, not measured here"}
{"target": "plasma membrane nucleolin (Homo sapiens, UniProt P19338)", "sequence (P19338 whole entry)": "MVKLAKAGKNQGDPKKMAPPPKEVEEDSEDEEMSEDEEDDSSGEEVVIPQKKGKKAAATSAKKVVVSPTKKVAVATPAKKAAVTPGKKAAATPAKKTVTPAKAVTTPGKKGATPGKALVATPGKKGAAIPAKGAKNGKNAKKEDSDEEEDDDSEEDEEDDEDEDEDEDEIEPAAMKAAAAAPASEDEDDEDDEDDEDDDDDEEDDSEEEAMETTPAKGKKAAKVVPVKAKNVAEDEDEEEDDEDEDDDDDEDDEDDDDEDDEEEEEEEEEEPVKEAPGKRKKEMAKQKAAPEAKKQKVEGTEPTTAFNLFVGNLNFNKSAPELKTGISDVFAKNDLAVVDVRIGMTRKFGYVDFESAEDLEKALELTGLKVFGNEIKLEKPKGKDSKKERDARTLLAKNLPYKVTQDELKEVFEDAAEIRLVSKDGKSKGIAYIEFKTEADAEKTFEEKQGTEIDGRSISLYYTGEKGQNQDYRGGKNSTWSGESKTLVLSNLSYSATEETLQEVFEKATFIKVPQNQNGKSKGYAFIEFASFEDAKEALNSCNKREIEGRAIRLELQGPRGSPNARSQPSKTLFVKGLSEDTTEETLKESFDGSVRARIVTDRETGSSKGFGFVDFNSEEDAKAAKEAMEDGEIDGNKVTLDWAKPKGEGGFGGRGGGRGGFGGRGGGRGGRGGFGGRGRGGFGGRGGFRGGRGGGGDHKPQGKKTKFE", "design": "key: ^1: Indicates a good plasma membrane nucleolin-binding GRO.; ^2: Indicates a nucleolin control (non-plasma membrane nucleolin binding)", "details": "superscript designation in Table 1"}
{"substance": "GRO15B: ttgggggggg tgggt (TTGGGGGGGGTGGGT; listed as DNA, chemistry not fully specified)", "plasma membrane nucleolin binding": "GRO15B^2"}
{"substance": "GRO26B: ggtggtggtg gttgtggtgg tggtgg", "plasma membrane nucleolin binding": "GRO26B^1"}
{"substance": "GRO G: ggttggtgtg gttgg", "plasma membrane nucleolin binding": "GRO G^1"}
{"substance": "GRO H: ggggttttgg gg (DNA GGGGTTTTGGGG; listed as DNA, chemistry not fully specified)", "plasma membrane nucleolin binding": "GRO H^1"}
{"substance": "GRO I: gggttttggg (DNA GGGTTTTGGG; listed as DNA, chemistry not fully specified)", "plasma membrane nucleolin binding": "GRO I^1"}
{"substance": "GRO J: ggggttttgg ggttttgggg ttttgggg (DNA GGGGTTTTGGGGTTTTGGGGTTTTGGGG; listed as DNA, chemistry not fully specified)", "plasma membrane nucleolin binding": "GRO J^1"}
{"substance": "GRO K: ttggggttgg ggttggggtt gggg (DNA TTGGGGTTGGGGTTGGGGTTGGGG; listed as DNA, chemistry not fully specified)", "plasma membrane nucleolin binding": "GRO K^1"}
{"substance": "GRO M: ggttttggtt ttggttttgg ttttgg (GGTTTTGGTTTTGGTTTTGGTTTTGG; aptamer; listed as DNA, chemistry not fully specified)", "plasma membrane nucleolin binding": "GRO M^1"}
{"substance": "GRO N: tttcctcctc ctccttctcc tcctcctcc (TTTCCTCCTCCTCCTTCTCCTCCTCCTCC; listed as DNA, chemistry not fully specified)", "plasma membrane nucleolin binding": "GRO N^2"}
{"substance": "GRO O: cctcctcctc cttctcctcc tcctcc (CCTCCTCCTCCTTCTCCTCCTCCTCC; aptamer; listed as DNA, chemistry not fully specified)", "plasma membrane nucleolin binding": "GRO O^2"}
{"substance": "GRO P: tggggt", "plasma membrane nucleolin binding": "GRO P^2"}
{"substance": "GRO Q: gcatgct (GCATGCT; listed as DNA, chemistry not given here)", "plasma membrane nucleolin binding": "GRO Q^2"}
{"substance": "GRO R: gcggtttgcg g (GCGGTTTGCGG; listed as DNA, chemistry not given here)", "plasma membrane nucleolin binding": "GRO R^2"}
{"substance": "GRO S: tagg (TAGG; listed as DNA, chemistry not given here)", "plasma membrane nucleolin binding": "GRO S^2"}
{"substance": "GRO T: ggggttgggg tgtggggttg ggg (GGGGTTGGGGTGTGGGGTTGGGG; listed as DNA, chemistry not given here)", "plasma membrane nucleolin binding": "GRO T^2"}
